Source: patent US20210276960A1, “INHIBITORS OF TISSUE TRANSGLUTAMINASE 2 (TG2) AND USES THEREOF” (Northwestern University, priority 2020, published 2021)

Tests used:
Solubility assay = assay type: physicochemical; conditions: pH=7.4 PBS buffer, 2% DMSO
Experimental: Solubility was measured in a 384-well plate using a Synergy HTX plate reader. Starting with a 50 mM DMSO stock solution of test compounds, dilutions were made from 1 to 500 μM final concentrations using acetonitrile, keeping the final DMSO concentration at 2%. UV absorption was measured at 254 nm and absorbance versus concentration was plotted to give a standard curve. A DMSO stock of test compound was also diluted with pH=7.4 PBS buffer to give a final concentration of 250 μM containing 2% DMSO. This mixture was stirred on a plate shaker for 1 hr after which it was centrifuged at 2500 rpm for 3 min. 50 μL of the supernatant was removed, transferred to a 384-well plate, and the UV absorbance at 254 nm was measured. Absorbance of the test compound in PBS buffer was analyzed with the standard curve to determine solubility.

[1] = system: FAK phosphorylation in SKOV3 cells; assay: Western blotting, FAK phosphorylation dose response; assay type: cell-based; conditions: increasing doses (TG53 8 to 16 μM), 2 hours after adhesion to FN
Experimental: FIG. 33. Dose response effects induced by TG2-FN inhibitors on FAK phosphorylation.
Lysates were separated by SDS-PAGE, transferred onto PVDF membranes (Bio-Rad), incubated with primary and secondary antibodies and developed by using SuperSignal™ West Femto Maximum Sensitivity Substrate and Pierce™ ECL Western Blotting Substrate, respectively (Thermo Scientific). Images were obtained by using the ImageQuant LAS 4000 mini-imager (GE Healthcare, Pittsburgh, Pa.). Densitometry analysis was performed using Quantity One software (Bio-Rad) and results were normalized to GAPDH loading controls. DMSO 0 min time point was considered as 1 for comparative analysis.

[2] = system: integrin β1 on OVCAR5 cells; assay: Flow cytometry of surface integrin β1, OVCAR5; assay type: cell-based, human; conditions: serial concentrations
Experimental: (§1) FIG. 32. Flow cytometry analysis of integrin 31 plasma membrane expression. […] OC cells were pre-incubated 1 h with serial dilutions of MT4 (as compared to TG53- and DMSO-treated cells), and left to attach for on either plastic (P) or fibronectin (FN) coated 6-well plates. Anti-integrin 31 antibodies (0.5 μg/mL) were used as control.

[3] = system: SKOV3 cells adhesion to FN; assay: Solid phase adhesion assay to FN, SKOV3; assay type: cell-based
Experimental: Cells labeled with calcein AM (Life Technologies, #L3224) were seeded at a density of 4×10^4 cells in 96-well plates pre-coated with FN (5 μg/mL, Sigma, #F1141), and blocked using 1% BSA (Sigma, #A9647) in PBS in the presence of selected compounds diluted at the specified concentrations, in serum free media. After 45 minutes, unattached cells were washed using PBS containing 1 mM MgCl2(Sigma, #M8266) and adherent cells were quantified in a SpectraMaxGeminiXS fluorescence plate reader (Molecular Devices, Palo Alto, Calif.) at 530 nm wavelength. Experiments were performed inquadruplicate and repeated at least twice.

[4] = system: integrin β1 on SKOV3 cells; assay: Flow cytometry of surface integrin β1, SKOV3; assay type: cell-based; conditions: serial concentrations
Experimental: as §1

OVCAR5 cells = assay: TIRF microscopy of β1 integrin distribution; assay type: cell-based, human; conditions: 1 μM or 5 μM, 1 h pre-treatment
Experimental: For assessing the potential effect of SMIs on 01 integrin distribution at the interface between cells and the FN matrix, OVCAR5 cells were treated for 1 h with either TG53 or MT-4 in serum-free media at 37° C., and then seeded onto FN-coated glass bottom microwell dishes (MatTek Corp. Ashland, Mass.) for 45 minutes at 37° C. Samples were fixed in PFA and blocked in 1% BSA. 01 integrin receptors were detected by using anti-01 integrin antibodies (clone P5D2, Chemicon, #MAB1959, 1:100) and AlexaFluor 568-conjugated anti-mouse secondary antibodies, while actin was labeled using Alexa Fluor 488-conjugated phalloidin. Cells were imaged with a Nikon Ti2 Microscope equipped with a Photometrics Prime 95B camera using a Nikon Plan Apo 100×1.49 NA TIRF objective.

[5] = biological target: T1, His-tagged TG2 / biotinylated FN42 interaction (Homo sapiens, UniProt P21980); assay: ELISA of the TG2-FN interaction; assay type: binding
T1 construct: made in house
T1 sequence (P21980 1-687): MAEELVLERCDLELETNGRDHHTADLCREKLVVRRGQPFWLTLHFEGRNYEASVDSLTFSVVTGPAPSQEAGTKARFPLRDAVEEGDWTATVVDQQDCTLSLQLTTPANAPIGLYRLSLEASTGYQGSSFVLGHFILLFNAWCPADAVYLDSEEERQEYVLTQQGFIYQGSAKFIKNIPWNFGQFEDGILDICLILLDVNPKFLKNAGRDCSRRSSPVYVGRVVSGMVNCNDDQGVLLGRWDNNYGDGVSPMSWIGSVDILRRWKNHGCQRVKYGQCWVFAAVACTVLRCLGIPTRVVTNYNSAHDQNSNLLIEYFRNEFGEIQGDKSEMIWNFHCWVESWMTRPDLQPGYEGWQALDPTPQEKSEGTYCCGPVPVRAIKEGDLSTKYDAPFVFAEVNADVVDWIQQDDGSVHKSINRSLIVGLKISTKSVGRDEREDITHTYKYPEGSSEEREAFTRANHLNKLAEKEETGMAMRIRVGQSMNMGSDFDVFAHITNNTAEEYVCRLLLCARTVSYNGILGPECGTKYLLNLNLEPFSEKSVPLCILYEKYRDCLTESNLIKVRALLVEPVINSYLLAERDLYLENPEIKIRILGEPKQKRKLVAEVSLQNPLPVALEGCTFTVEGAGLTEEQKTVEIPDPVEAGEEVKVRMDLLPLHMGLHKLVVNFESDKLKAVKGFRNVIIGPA
Experimental: Confirmation using ELISA: An independent ELISA validated inhibition of TG2/FN complex formation by SMIs^11. The ELISA assay measured the binding between His6-TG2 captured to the wells by anti-His antibodies and biotinylated FN42 detectable with streptavidin-HRP (FIG. 12A). […] Selected compounds (at concentrations between 5 and 10 μM) inhibited the ELISA signal by 29.7% to 69.5%^11.
ELISA measured the interaction between recombinant His tagged TG2 (rTG2-His) and the biotinylated 42 kD fragment of FN (FN42) which were expressed and purified, as previously described (Yakubov et al., 2014). Briefly, a mixture of 10 nMrTG2-His and selected SMIs or DMSO was added to 96 well plates pre-coated with monoclonal anti-His antibody (Roche, Indianapolis, Ind.; 1:6000). The mixture was incubated for 1 h at RT with 5 nM biotinylated FN42. After washing, wells were incubated with streptavidin-HRP (Cell Signaling, #3999; 1:2000). The reaction was developed with 3,3′,5,5′tetramethylbenzidine (TMB) substrate (BD Biosciences, #555214) and the optical density at […] was measured by using a BioTek microplate reader (Winooski, Vt., USA). Data shown are means±SEM of two independent experiments (n=6).

Row | SMILES | solubility at 1 h (Solubility assay; aqueous buffer, kinetic from dmso stock) | FAK phosphorylation [1] | β1 integrin receptors at the plasma membrane [2] | cell adhesion to FN, dose dependence ([3]; 2 μM-25 μM) | OC cells' adhesion to FN ([3]; FN 5 μg/mL, FIG. 2E) | β1 integrin receptors at the plasma membrane [4] | β1 integrin distribution at the interface with FN (OVCAR5 cells) | inhibition of rTG2-FN42 interaction relative to TG53 ([5]; 10 μM) | solubility at 1 h (Solubility assay) | cell adhesion to FN ([3]; 25 μM, FIG. 13A) | inhibition of cell adhesion to FN, TG2 expressing vs AS-TG2 cells ([3]; 25 μM, SKOV3pcDNA3.1 vs SKOV3-ASTG2) | cell adhesion to FN, dose dependence and specificity ([3]; 1-25 μM, TG53 compared with TG288) | binding mode (Lineweaver-Burk plot analysis) [5] | inhibition of ELISA signal ([5]; 5 μM) | Ki ([5]; saturation curves of FN42 with increasing TG53, read-out: inhibition constant Ki)
1 | Cc1cc(N(C)C)nc(Nc2ccc(NC(=O)Cc3ccccc3)cc2)n1 [MT-4] | 91.5 µM | dose-dependent inhibition | did not show significant downregulation | dose-dependent inhibitory effect | potently blocked | did not show significant downregulation | enhanced 31 integrin transposition towards the extreme edge of the cell | slightly more potently than TG53 |  |  |  |  |  |  | 
2 | COc1ccc(Cl)cc1C(=O)Nc1ccc(Nc2nc(C)cc(N(C)C)n2)cc1 [TG53] |  | attenuated | did not show significant downregulation |  |  | did not show significant downregulation | modest displacement of integrin receptors towards the cell perimeter |  | <5 µM | inhibited cell adhesion | more pronounced in TG2 expressing SKOV3pcDNA3.1 cells | dose-dependent | competes for the same binding site in TG2 as FN42 | 65% | 4.15 µM
